# Laboratory results from publication PMC11456916, “A screen for cell envelope stress uncovers an inhibitor of prolipoprotein diacylglyceryl transferase, Lgt, in Escherichiacoli” (iScience, 2024).
# Like-named read-outs stand apart in the source and are kept apart here.
# Assays:
# E. coli BW25113 = assay: MIC assay, wild-type E. coli with or without SPR741; assay type: cell-based; conditions: for reduction in potency relative to MAC-0452936 (1): MIC against E. coli with SPR741
# Experimental: We next sought to determine whether we could achieve growth inhibition of wild-type E. coli using MAC-0452936 and an antibiotic adjuvant. […] To that end, we determined the MIC of MAC-0452936 against wild-type E. coli in the presence and absence of a sub-MIC concentration of SPR741 (Figure S8B). […] We leveraged this combination to characterize the spectrum of activity of MAC-0452936 against a panel of Gram-negative pathogens (Table 2). In the presence of 8 μg/mL SPR741, we observed MAC-0452936 activity against the clinical E. coli isolates C0244 and CFT073 at 2 μg/mL as well as against Salmonella Typhimurium SL1344 at 4 μg/mL.
# (§1) For MIC assays, cultures of bacteria were grown in LB broth. Overnight cultures were diluted (1:100) into fresh LB media and grown to the mid-log phase of growth (OD600 ∼0.5). Subcultures were then normalized to an OD600 of 0.1, and diluted (1:5000) into assay media. Assay plates were then incubated for 18 h at 37°C, then OD600 was measured using a Biotek Neo plate reader.
# E. coli ΔtolC-pore = assay: MIC assay, E. coli ΔtolC-pore; assay type: cell-based; conditions: LB, 18 h
# Experimental: as §1
# [1] = target: T1, prolipoprotein diacylglyceryl transferase, Lgt (Escherichia coli, UniProt P60955); assay: In vitro Lgt biochemical assay (phosphatidylglycerol and Pal-IAAC peptide substrates); design: species or system E. coli
# T1 construct: Expression, purification, and in vitro Lgt biochemical assay were conducted as described by Diao et al; made in house
# Text: With both genetic and phenotypic evidence supporting MAC-0452936 inhibiting Lgt in E. coli, we next investigated whether MAC-0452936 could inhibit Lgt activity in vitro. Recently, a biochemical assay for Lgt activity was developed using phosphatidylglycerol and Pal-IAAC peptide as substrates.[12] […] As similar results were obtained using two different Lgt enzyme preparations, the inhibition observed by MAC-0452936 was not dependent on the preparation of the lipid matrix. Together, we present genetic, phenotypic, and biochemical evidence that MAC-0452936 inhibits the growth of E. coli through inhibition of Lgt. MAC-0452936 represents a previously undiscovered small molecule inhibitor of bacterial Lgt, and the oxime ester represents a promising chemical scaffold for antibiotic discovery.
# Expression, purification, and in vitro Lgt biochemical assay were conducted as described by Diao et al.[12]
# [2] = system: E. coli ΔtolC-pore harboring CRISPRi plasmids targeting lgt; assay: CRISPRi lgt knockdown MIC (low-copy enhancement); assay type: cell-based; conditions: two gRNAs targeting lgt, 100 ng/mL aTc
# Text: We next turned to genetic approaches to confirm the mechanism of action of MAC-0452936. […] To that end, we screened the E. coli CRISPRi collection in the ΔtolC-pore genetic background with a sub-inhibitory concentration of MAC-0452936 and measured the fitness of all 356 CRISPRi mutants (Figure 4C and Data S4). […] Depletion of Lgt by CRISPRi provided supporting evidence that MAC-0452936 targeted Lgt in E. coli; however, we sought to confirm this observation using a parallel genetic approach. We hypothesized that MAC-0452936 potency would also be affected by high-copy expression of lgt. To that end, we introduced either an arabinose inducible copy of lgt supplied on the pCHAP9231 plasmid[48] or the pBAD19s plasmid as a control into E. coli ΔtolC-pore and tested the potency of MAC-0452936 (Figure 4E). Induction of lgt expression with arabinose suppressed the activity of MAC-0452936 by about 8-fold. […] To test this hypothesis, we constructed E. coli ΔlgtΔtolC-pore with pCHAP9231[48] so that lgt expression was driven solely by arabinose from the plasmid. […] To test this observation with MAC-0452936, we introduced an lpp deletion into our screening strain E. coli ΔtolC-pore and assessed the activity of our Lgt inhibitor in this mutant background. […]
# [3] = Lgt purified using DDM lipid matrix, read-out: in vitro Lgt inhibition DDM-Lgt IC50
# [4] = Lgt purified using amphipol lipid matrix, read-out: in vitro Lgt inhibition Amph-Lgt IC50
# T1 sequence (P60955 whole entry): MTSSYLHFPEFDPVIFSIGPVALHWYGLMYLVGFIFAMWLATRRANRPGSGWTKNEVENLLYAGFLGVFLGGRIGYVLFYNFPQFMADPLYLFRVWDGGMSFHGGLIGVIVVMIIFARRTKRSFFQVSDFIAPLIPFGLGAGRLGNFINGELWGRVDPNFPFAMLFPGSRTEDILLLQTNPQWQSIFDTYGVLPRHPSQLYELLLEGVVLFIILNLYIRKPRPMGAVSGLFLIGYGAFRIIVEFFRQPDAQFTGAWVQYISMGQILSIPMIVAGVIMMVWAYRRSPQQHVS
compound,measurement,setting,value
"COc1ccc(C(=O)O/N=C(\c2cccs2)C(C)(C)C)cc1N [compound 6, (Z)-2-Pivaloylthiophene O-(3-amino-4-methoxybenzoyl) oxime]","MIC, E. coli BW25113 (WT) + 8 μg/mL SPR741",E. coli BW25113,8 µg/mL
same,"MIC, E. coli ΔtolC-pore",E. coli ΔtolC-pore,32 µg/mL
same,IC50,[1]; [3],57.3 µM
same,IC50,[1]; [4],95.5 µM
"COc1ccc(C(=O)O/N=C(\c2cncs2)C(C)(C)C)cc1 [compound 20, (Z)-5-Pivaloylthiazole O-(4-methoxybenzoyl) oxime]",reduction in potency relative to MAC-0452936 (1),E. coli BW25113,≥ 32 fold
"CC(C)(C)C(=NOS(N)(=O)=O)c1cccs1 [compound 17, 2-Pivaloylthiophene O-(sulfamoyl) oxime]",activity against E. coli with SPR741,E. coli BW25113; in words,inactive
"CC(C)(C)/C(=N/OC(=O)c1cccnc1)c1cccs1 [compound 3, (Z)-2-Pivaloylthiophene O-(pyridine-3-oyl) oxime]","MIC, E. coli ΔtolC-pore",E. coli ΔtolC-pore,1 µg/mL
same,IC50,[1]; [3],3.54 µM
same,IC50,[1]; [4],2.72 µM
"COc1cc(OC)cc(C(=O)O/N=C(\c2cccs2)C(C)(C)C)c1 [compound 7, (Z)-2-Pivaloylthiophene O-(3,5-dimethoxybenzoyl) oxime]","MIC, E. coli BW25113 (WT) + 8 μg/mL SPR741",E. coli BW25113,4 µg/mL
same,"MIC, E. coli ΔtolC-pore",E. coli ΔtolC-pore,> 32 µg/mL
same,IC50,[1]; [3],58.7 µM
same,IC50,[1]; [4],175 µM
"CC(C)(C)/C(=N/OC(=O)c1cncs1)c1cccs1 [compound 4, (Z)-2-Pivaloylthiophene O-(thiazol-5-ylcarbonyl) oxime]","MIC, E. coli BW25113 (WT) + 8 μg/mL SPR741",E. coli BW25113,2 µg/mL
same,"MIC, E. coli ΔtolC-pore",E. coli ΔtolC-pore,2 µg/mL
same,IC50,[1]; [3],7.68 µM
same,IC50,[1]; [4],4.92 µM
"Cn1cncc1C(=O)O/N=C(\c1cccs1)C(C)(C)C [compound 5, (Z)-2-Pivaloylthiophene O-(1-methyl-1H-imidazol-5-oyl) oxime]","MIC, E. coli BW25113 (WT) + 8 μg/mL SPR741",E. coli BW25113,4 µg/mL
same,"MIC, E. coli ΔtolC-pore",E. coli ΔtolC-pore,4 µg/mL
same,IC50,[1]; [3],7.78 µM
same,IC50,[1]; [4],5.91 µM
"COc1ccc(CC(=O)O/N=C(\c2cccs2)C(C)(C)C)cc1 [compound 16, (Z)-2-Pivaloylthiophene O-(2-(4-methoxyphenyl)acetyl) oxime]","MIC, E. coli BW25113 (WT) + 8 μg/mL SPR741",E. coli BW25113,4 µg/mL
same,reduction in potency relative to MAC-0452936 (1),E. coli BW25113,8 fold
CO[C@H]1/C=C/O[C@@]2(C)Oc3c(C)c(O)c4c(O)c(c(/C=N/N5CCN(C)CC5)c(O)c4c3C2=O)NC(=O)/C(C)=C\C=C\[C@H](C)[C@H](O)[C@@H](C)[C@@H](O)[C@@H](C)[C@H](OC(C)=O)[C@@H]1C [Rifampicin],sensitization upon depletion of Lgt with CRISPRi constructs,[2],not to either of the negative control antibiotics
"COc1ccc(C(=O)O/N=C(\c2cccs2)C(C)(C)C)c(F)c1 [compound 2, (Z)-2-Pivaloylthiophene O-(2-fluoro-4-methoxybenzoyl) oxime]","MIC, E. coli ΔtolC-pore",E. coli ΔtolC-pore,0.5 µg/mL
same,IC50,[1]; [3],0.77 µM
same,IC50,[1]; [4],0.32 µM
"COc1ccc(C(=O)O/N=C(\c2cccnc2)C(C)(C)C)cc1 [compound 22, (Z)-3-Pivaloylpyridine O-(4-methoxybenzoyl) oxime]",reduction in potency relative to MAC-0452936 (1),E. coli BW25113,≥ 32 fold
